Broadly, the pest or weed control is how far the test organism was held down. High values mean strong suppression, low ones weak suppression. One may read the melting point as the temperature, or range, at which the solid turns liquid. The term inhibition of growth denotes how much of the control response was suppressed. A low value points to a weak effect.

This note sets out measurements from US11447481B2, “Microbiocidal oxadiazole derivatives” (SYNGENTA PARTICIPATIONS AG, priority 2017, dated 2022).

One series has as its system Phakopsora pachyrhizi. The series is described as follows: Fungicidal activity against Phakopsora pachyrhizi / soybean / leaf disc preventative (Asian soybean rust). The format is in vivo. As to conditions: foliar, soybean leaf disks, compared to untreated control. As for the experimental part:
(§1) Leaf disks or leaf segments of various plant species are cut from plants grown in a greenhouse. The cut leaf disks or segments are placed in multiwell plates (24-well format) onto water agar. The leaf disks are sprayed with a test solution before (preventative) or after (curative) inoculation. Compounds to be tested are prepared as DMSO solutions (max. 10 mg/ml) which are diluted to the appropriate concentration with 0.025% Tween20 just before spraying. The inoculated leaf disks or segments are incubated under defined conditions (temperature, relative humidity, light, etc.) according to the respective test system. A single evaluation of disease level is carried out 3 to 14 days after inoculation, depending on the pathosystem. Percent disease control relative to the untreated check leaf disks or segments is then calculated.
Soybean leaf disks are placed on water agar in multiwell plates (24-well format) and sprayed with the formulated test compound diluted in water. One day after application leaf discs are inoculated by spraying a spore suspension on the lower leaf surface. After an incubation period in a climate cabinet of 24-36 hours in darkness at 20° C. and 75% rh leaf disc are kept at 20° C. with 12 h light/day and 75% rh. The activity of a compound is assessed as percent disease control compared to untreated when an appropriate level of disease damage appears in untreated check leaf disks (12-14 days after application).

Series [1] relates to Puccinia recondita f. sp. tritici. The series is described as follows: Fungicidal activity against Puccinia recondita f. sp. tritici / wheat / leaf disc curative (brown rust). The format is in vivo. As to conditions: foliar, 24 h, wheat leaf segments, curative (applied 1 day after inoculation), compared to untreated control. As for the experimental part: as §1
Wheat leaf segments cv. Kanzler are placed on agar in multiwell plates (24-well format). The leaf segments are inoculated with a spore suspension of the fungus. Plates are stored in darkness at 19° C. and 75% rh. The formulated test compound diluted in water is applied 1 day after inoculation. The leaf segments are incubated at 19° C. and 75% rh under a light regime of 12 h light/12 h darkness in a climate cabinet and the activity of a compound is assessed as percent disease control compared to untreated when an appropriate level of disease damage appears in untreated check leaf segments (6-8 days after application).

Series [2] has the same test system. Nature of the series: Fungicidal activity against Puccinia recondita f. sp. tritici / wheat / leaf disc preventative (brown rust). The format is in vivo. As to conditions: foliar, wheat leaf segments, preventative (inoculated 1 day after application), compared to untreated control. On the procedure:
as §1
Wheat leaf segments cv. Kanzler are placed on agar in multiwell plates (24-well format) and sprayed with the formulated test compound diluted in water. The leaf disks are inoculated with a spore suspension of the fungus 1 day after application. The inoculated leaf segments are incubated at 19° C. and 75% rh under a light regime of 12 h light/12 h darkness in a climate cabinet and the activity of a compound is assessed as percent disease control compared to untreated when an appropriate level of disease damage appears in untreated check leaf segments (7-9 days after application).

Series [3] has as its system Glomerella lagenarium (Colletotrichum lagenarium). Nature of the series: Fungicidal activity against Glomerella lagenarium (Colletotrichum lagenarium) liquid culture / cucumber / preventative (anthracnose). The format is cell-based. As to conditions: Colletotrichum orbiculare, liquid culture (PDB), growth inhibition measured photometrically 3-4 days after application, compared to untreated control. On the procedure: Mycelia fragments or conidia suspensions of a fungus prepared either freshly from liquid cultures of the fungus or from cryogenic storage, are directly mixed into nutrient broth. DMSO solutions of the test compound (max. 10 mg/ml) are diluted with 0.025% Tween20 by a factor of 50 and 10 µl of this solution is pipetted into a microtiter plate (96-well format). The nutrient broth containing the fungal spores/mycelia fragments is then added to give an end concentration of the tested compound. The test plates are incubated in the dark at 24° C. and 96% relative humidity. The inhibition of fungal growth is determined photometrically after 2 to 7 days, depending on the pathosystem, and percent antifungal activity relative to the untreated check is calculated.
Conidia of the fungus from cryogenic storage are directly mixed into nutrient broth (PDB potato dextrose broth). After placing a (DMSO) solution of test compound into a microtiter plate (96-well format), the nutrient broth containing the fungal spores is added. The test plates are incubated at 24° C. and the inhibition of growth is measured photometrically 3-4 days after application.

On to `O=c1ccc(Br)nn1Cc1ccc(-c2noc(C(F)(F)F)n2)cc1` [Compound C-2, 6-bromo-2-[[4-[5-(trifluoromethyl)-1,2,4-oxadiazol-3-yl]phenyl]methyl]pyridazin-3-one], for which the melting point was 106.5 to 107.6 °C. The molecule further returned a pest or weed control at 200 ppm with Phakopsora pachyrhizi not below 80%. For the same molecule, the pest or weed control at 200 ppm in series [1] was not below 80%. The same molecule yielded a pest or weed control at 200 ppm in series [2] not below 80%. The inhibition of growth at 20 ppm in series [3] was not below 80%.
In the case of `Cc1cccc(=O)n1Cc1ccc(-c2noc(C(F)(F)F)n2)cc1` [Compound C-4, 6-methyl-1-[[4-[5-(trifluoromethyl)-1,2,4-oxadiazol-3-yl]phenyl]methyl]pyridin-2-one], the melting point is 88 to 90 °C. Moreover, the pest or weed control at 200 ppm in the series with Phakopsora pachyrhizi is not below 80%. In series [1], this molecule showed a pest or weed control at 200 ppm not below 80%. This molecule also showed a pest or weed control at 200 ppm in series [2] not below 80%. In addition, in series [3], the inhibition of growth at 20 ppm is not below 80%.
With `Cc1ccn(Cc2ccc(-c3noc(C(F)(F)F)n3)cc2)c(=O)c1` [Compound C-5, 4-methyl-1-[[4-[5-(trifluoromethyl)-1,2,4-oxadiazol-3-yl]phenyl]methyl]pyridin-2-one], the melting point was in the range of 156 to 158 °C. The pest or weed control at 200 ppm in the series on Phakopsora pachyrhizi is not below 80%. This molecule also registered a pest or weed control at 200 ppm in series [1] not below 80%. In series [2], this molecule yielded a pest or weed control at 200 ppm not below 80%. Besides, the inhibition of growth at 20 ppm in series [3] was not below 80%.
In turn, `O=c1ccc(F)cn1Cc1ccc(-c2noc(C(F)(F)F)n2)cc1` [Compound C-6, 5-fluoro-1-[[4-[5-(trifluoromethyl)-1,2,4-oxadiazol-3-yl]phenyl]methyl]pyridin-2-one] yielded a melting point of 125 to 126 °C. Also, in the series on Phakopsora pachyrhizi, the pest or weed control at 200 ppm is not below 80%. Also, the pest or weed control at 200 ppm in series [1] was not below 80%. For the same molecule, the pest or weed control at 200 ppm in series [2] was not below 80%. The molecule further displayed an inhibition of growth at 20 ppm in series [3] not below 80%.
Molecule `N#Cc1cccn(Cc2ccc(-c3noc(C(F)(F)F)n3)cc2)c1=O` [Compound C-7, 2-oxo-1-[[4-[5-(trifluoromethyly)-1,2,4-oxadiazol-3-yl]phenyl]methyl]pyridine-3-carbonitrile] registered a melting point of 178 to 180 °C. In the series on Phakopsora pachyrhizi, this molecule had a pest or weed control at 200 ppm not below 80%. The molecule also yielded a pest or weed control at 200 ppm in series [1] not below 80%. The same molecule came in with a pest or weed control at 200 ppm in series [2] not below 80%. The same molecule registered an inhibition of growth at 20 ppm in series [3] not below 80%.
The molecule `Cc1cccn(Cc2ccc(-c3noc(C(F)(F)F)n3)cc2)c1=O` [Compound C-8, 3-methyl-1-[[4-[5-(trifluoromethyl)-1,2,4-oxadiazol-3-yl]phenyl]methyl]pyridin-2-one] returned a melting point of 115 to 117 °C. The pest or weed control at 200 ppm with Phakopsora pachyrhizi was not below 80%. Further, the pest or weed control at 200 ppm in series [1] was not below 80%. In series [2], the pest or weed control at 200 ppm is not below 80%. Further, the inhibition of growth at 20 ppm in series [3] is not below 80%.
The molecule `O=c1ccc(C(F)(F)F)cn1Cc1ccc(-c2noc(C(F)(F)F)n2)cc1` [Compound C-9, 5-(trifluoromethyl)-1-[[4-[5-(trifluoromethyl)-1,2,4-oxadiazol-3-yl]phenyl]methyl]pyridin-2-one] registered a melting point of 131 to 133 °C. Further, in the series on Phakopsora pachyrhizi, the pest or weed control at 200 ppm was not below 80%. The pest or weed control at 200 ppm in series [1] was not below 80%. For the same molecule, in series [2], the pest or weed control at 200 ppm is not below 80%. The molecule also yielded an inhibition of growth at 20 ppm in series [3] not below 80%.
For `Cc1ccc(=O)n(Cc2ccc(-c3noc(C(F)(F)F)n3)cc2)c1` [Compound C-10, 5-methyl-1-[[4-[5-(trifluoromethyl)-1,2,4-oxadiazol-3-yl]phenyl]methyl]pyridin-2-one], the melting point fell in the range of 174 to 176 °C. This molecule displayed a pest or weed control at 200 ppm in the series with Phakopsora pachyrhizi not below 80%. The molecule further returned a pest or weed control at 200 ppm in series [1] not below 80%. Further, in series [2], the pest or weed control at 200 ppm was not below 80%. In series [3], this molecule had an inhibition of growth at 20 ppm not below 80%.
Consider `N#Cc1ccc(=O)n(Cc2ccc(-c3noc(C(F)(F)F)n3)c(F)c2F)c1` [Compound C-11, 1-[[2,3-difluoro-4-[5-(trifluoromethyl)-1,2,4-oxadiazol-3-yl]phenyl]methyl]-6-oxo-pyridine-3-carbonitrile], for which the melting point lay within 144 to 146 °C. In addition, in the series with Phakopsora pachyrhizi, the pest or weed control at 200 ppm is not below 80%. In series [1], this molecule gave a pest or weed control at 200 ppm not below 80%. Besides, in series [2], the pest or weed control at 200 ppm was not below 80%. Moreover, the inhibition of growth at 20 ppm in series [3] was not below 80%.
For `O=c1ccccn1Cc1ccc(-c2noc(C(F)(F)F)n2)c(F)c1F` [Compound C-12, 1-[[2,3-difluoro-4-[5-(trifluoromethyl)-1,2,4-oxadiazol-3-yl]phenyl]methyl]pyridin-2-one], the melting point was 154 to 156 °C. The same molecule returned a pest or weed control at 200 ppm in the series on Phakopsora pachyrhizi not below 80%. The pest or weed control at 200 ppm in series [1] was not below 80%. In addition, the pest or weed control at 200 ppm in series [2] was not below 80%. This molecule gave an inhibition of growth at 20 ppm in series [3] not below 80%.
Molecule `N#Cc1ccc(=O)n(Cc2ccc(-c3noc(C(F)(F)F)n3)cc2)c1` [Compound C-13, 6-oxo-1-[[4-[5-(trifluoromethylyl)-1,2,4-oxadiazol-3-yl]phenyl]methyl]pyridine-3-carbonitrile] registered a melting point of 174 to 176 °C. The molecule also returned a pest or weed control at 200 ppm with Phakopsora pachyrhizi not below 80%. In addition, the pest or weed control at 200 ppm in series [1] is not below 80%. This molecule also registered a pest or weed control at 200 ppm in series [2] not below 80%. Also, the inhibition of growth at 20 ppm in series [3] was not below 80%.
In turn, `O=c1ccccn1Cc1ccc(-c2noc(C(F)(F)F)n2)cc1` [Compound C-14, 1-[[4-[5-(trifluoromethyl)-1,2,4-oxadiazol-3-yl]phenyl]methyl]pyridin-2-one] yielded a melting point of 142 to 144 °C. The molecule also registered a pest or weed control at 200 ppm in the series on Phakopsora pachyrhizi not below 80%. The pest or weed control at 200 ppm in series [1] is not below 80%. In addition, the pest or weed control at 200 ppm in series [2] is not below 80%. The same molecule registered an inhibition of growth at 20 ppm in series [3] not below 80%.
In turn, `Cn1nnn(CCc2ccc(-c3noc(C(F)(F)F)n3)cc2)c1=O` [Compound D-1, 1-methyl-4-[2-[4-[5-(trifluoromethyl)-1,2,4-oxadiazol-3-yl]phenyl]ethyl]tetrazol-5-one] gave a melting point of 92 to 94 °C. This molecule registered a pest or weed control at 200 ppm in the series with Phakopsora pachyrhizi not below 80%. For the same molecule, the pest or weed control at 200 ppm in series [1] was not below 80%. This molecule had a pest or weed control at 200 ppm in series [2] not below 80%. Moreover, the inhibition of growth at 20 ppm in series [3] was not below 80%.
